Laboratory results taken from PMC7170309, “Imidazopyridine-fused [1,3]diazepinones: modulations of positions 2 to 4 and their impacts on the anti-melanoma activity” (Journal of Enzyme Inhibition and Medicinal Chemistry, 2020).

Key:
Type in all cases: cell-based, human
MDA-MB-435 cells = assay: Immunofluorescent staining for actin localisation (confocal microscopy); details: 5 µM, 20 h
Description: To evaluate the effect of compound treatment on cell morphology and stress actin fibres, an immunofluorescence imaging of cells was performed as previously described. MDA-MB-435 cells were seeded on cover slips in petri dishes and allowed to grow for 24 h. After cell growth, cells were treated with the vehicule (control cells) or with JMV5038, compound 5 or 8 at 5 µM for 20 h. Then cells were fixed using Antigenfix for 20 min and permeabilized using 0.2% Triton X-100 for 4 min at room temperature. Actin was stained using a primary human anti-actin antibody (made from mouse) and a secondary Alexa Fluor 568-conjugated goat anti-mouse antibody. Both of them were incubated 1 h at room temperature. Nuclei were counter-stained using Hoechst 33342. Representative images were obtained using a Zeiss LSM 780 inverted confocal microscopy. Confocal fluorescence microscopy was performed on fixed cells under a 543 nm wavelength excitation for AlexaFluor568, and 405 nm for nuclei, and visualised at 620 nm (red) and 450 nm (blue) respectively.
In our previous study, we reported that JMV5038 led to changes in the cell morphology, concomitant with a disruption of the actin network. Morphological changes in MDA-MB-435 cells induced by compounds 5 or 8 were investigated and compared to those induced by JMV5038. For this purpose, fixed and actin immunostained MDA-MB-435 cells were imaged by confocal microscopy (Figure 6). Control cells treated with DMSO (20 h, 5 µM concentration) were spread and the tensile forces of actin stress fibres stretched the cell-adhesive phenotype.

CCRF-CEM = assay: NCI-60 SRB assay, CCRF-CEM (Leukemia); details: 10 µM, 48 h
Description: (§1) Primary anticancer assay was performed on a panel of 60 human cancer cell lines derived from nine neoplastic diseases, in accordance with the protocol of the Drug Evaluation Branch, National Cancer Institute, Bethesda, Maryland, USA[22]. Cells were incubated with tested compounds at 10 µM for 48 h. The growth percentage was evaluated spectrophotometrically using a protein binding dye, SRB. Results for each tested compound were reported as the percent of growth of treated cells when compared to untreated control cells.
(§2) To better compare the activity profile of these two series of compounds, compounds 5 and 8 were selected and then evaluated towards a panel of sixty cancer cell lines corresponding to nine different cancer types, i.e. leukaemia, melanoma, as well as lung, colon, central nervous system, ovarian, renal, prostate and breast cancers (NCI evaluation). Indeed, it is now well established that the growth inhibitory patterns of anticancer drugs against the NCI-60 cell line panel correlated well with their modes of action. For example, compounds that bind to tubulin have similar growth inhibition patterns regardless of which site on tubulin they bind[30]. […] Compounds were tested using the sulforhodamine B (SRB) assay that provides a direct cell density index. The amount of dye incorporated by the cells increases with the increase of the total protein biomass. Cells were incubated for 48 h with compounds at 10 µM concentration, then cell growth was evaluated spectrophotometrically and presented as the percent of untreated control cells. Values of the most sensitive cell lines were compared to those obtained with JMV5038 (Figure 4, for all data see SI).

A549/ATCC = assay: NCI-60 SRB assay, A549/ATCC (NSCLC); details: 10 µM, 48 h
Description: as §1, §2

HOP-92 = assay: NCI-60 SRB assay, HOP-92 (NSCLC); details: 10 µM, 48 h;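 for Mean G% - G%: mean growth across the NCI-60 panel minus this line's growth with positive meaning more sensitive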
Description: as §1, §2

NCI-H522 = assay: NCI-60 SRB assay, NCI-H522 (NSCLC); details: 10 µM, 48 h
Description: as §1, §2

HCT-116 = assay: NCI-60 SRB assay, HCT-116 (Colon Cancer); details: 10 µM, 48 h
Description: as §1, §2

HCT-15 = assay: NCI-60 SRB assay, HCT-15 (Colon Cancer); details: 10 µM, 48 h
Description: as §1, §2

SF-268 = assay: NCI-60 SRB assay, SF-268 (CNS Cancer); details: 10 µM, 48 h
Description: as §1, §2

SF-295 = assay: NCI-60 SRB assay, SF-295 (CNS Cancer); details: 10 µM, 48 h
Description: as §1, §2

SF-539 = assay: NCI-60 SRB assay, SF-539 (CNS Cancer); details: 10 µM, 48 h
Description: as §1, §2

M14 = assay: NCI-60 SRB assay, M14 (Melanoma); details: 10 µM, 48 h
Description: as §1, §2

MDA-MB-435 = assay: NCI-60 SRB assay, MDA-MB-435 (Melanoma); details: MDA-MB-435, 10 µM, 48 h, SRB;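 for Mean G% - G%: mean growth across the NCI-60 panel minus this line's growth with positive meaning more sensitive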
Description: as §1, §2

SK-MEL-5 = assay: NCI-60 SRB assay, SK-MEL-5 (Melanoma); details: 10 µM, 48 h
Description: as §1, §2

UACC-62 = assay: NCI-60 SRB assay, UACC-62 (Melanoma); details: 10 µM, 48 h
Description: as §1, §2

IGROV1 = assay: NCI-60 SRB assay, IGROV1 (Ovarian Cancer); details: 10 µM, 48 h
Description: as §1, §2

OVCAR-4 = assay: NCI-60 SRB assay, OVCAR-4 (Ovarian Cancer); details: 10 µM, 48 h;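 for Mean G% - G%: mean growth across the NCI-60 panel minus this line's growth with positive meaning more sensitive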
Description: as §1, §2

OVCAR-5 = assay: NCI-60 SRB assay, OVCAR-5 (Ovarian Cancer); details: 10 µM, 48 h;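 for Mean G% - G%: mean growth across the NCI-60 panel minus this line's growth with positive meaning more sensitive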
Description: as §1, §2

SK-OV-3 = assay: NCI-60 SRB assay, SK-OV-3 (Ovarian Cancer); details: 10 µM, 48 h
Description: as §1, §2

SN12C = assay: NCI-60 SRB assay, SN12C (Renal Cancer); details: 10 µM, 48 h
Description: as §1, §2

DU-145 = assay: NCI-60 SRB assay, DU-145 (Prostate Cancer); details: 10 µM, 48 h
Description: as §1, §2

BT-549 = assay: NCI-60 SRB assay, BT-549 (Breast Cancer); details: 10 µM, 48 h
Description: as §1, §2

C[C@@H]1NC(c2ccc(Br)cc2)=Nc2nc3ccccn3c2C1=O [JMV5038]
morphological changes / actin network (MDA-MB-435 cells): disorganisation of the actin cytoskeleton
Mean G% - G% (CCRF-CEM): -25,20%
G% (CCRF-CEM; growth vs untreated control): 79,44%
Mean G% - G% (A549/ATCC): -0,42%
G% (A549/ATCC; growth vs untreated control): 54,66%
Mean G% - G% (HOP-92): -5,24%
G% (HOP-92; growth vs untreated control): 59,48%
Mean G% - G% (NCI-H522): 19,43%
G% (NCI-H522; growth vs untreated control): 34,81%
Mean G% - G% (HCT-116): 25,02%
G% (HCT-116; growth vs untreated control): 29,22%
Mean G% - G% (HCT-15): 23,49%
G% (HCT-15; growth vs untreated control): 30,75%
Mean G% - G% (SF-268): -29,20%
G% (SF-268; growth vs untreated control): 83,44%
Mean G% - G% (SF-295): 13,36%
G% (SF-295; growth vs untreated control): 40,88%
Mean G% - G% (SF-539): -20,40%
G% (SF-539; growth vs untreated control): 74,64%
Mean G% - G% (M14): 22,48%
G% (M14; growth vs untreated control): 31,76%
Mean G% - G% (MDA-MB-435): 67,26%
G% (MDA-MB-435; growth vs untreated control): -13,02%
Mean G% - G% (SK-MEL-5): 22,34%
G% (SK-MEL-5; growth vs untreated control): 31,90%
Mean G% - G% (UACC-62): 5,01%
G% (UACC-62; growth vs untreated control): 49,23%
Mean G% - G% (IGROV1): 11,16%
G% (IGROV1; growth vs untreated control): 43,08%
Mean G% - G% (OVCAR-4): -23,22%
G% (OVCAR-4; growth vs untreated control): 77,46%
Mean G% - G% (OVCAR-5): -28,14%
G% (OVCAR-5; growth vs untreated control): 82,38%
Mean G% - G% (SK-OV-3): -17,78%
G% (SK-OV-3; growth vs untreated control): 72,02%
Mean G% - G% (SN12C): -37,53%
G% (SN12C; growth vs untreated control): 91,77%
Mean G% - G% (DU-145): -33,50%
G% (DU-145; growth vs untreated control): 87,74%
Mean G% - G% (BT-549): 4,92%
G% (BT-549; growth vs untreated control): 49,32%
